{
  "source": "patent US10856562B2",
  "about": "“Flavor composition and edible compositions containing same” (MARS, INCORPORATED, priority 2013, dated 2020)",
  "test_system": "panelists",
  "assay": "Increased salt perception protocol: salt 5 reference (0.35% salt solution) re-tasted after expectoration of test sample",
  "assay_type": "in vivo, human",
  "details": "for Astringent, after-expectoration perception / Bitter, after-expectoration perception / Flinty/Mineral, after-expectoration perception / Metallic, after-expectoration perception / Numbing, after-expectoration perception / Salt, after-expectoration perception (mean salt perception after expectoration) / Sour, after-expectoration perception / Sweet, after-expectoration perception: salt 5 reference re-tasted, mean score",
  "description": "1. Each panelist tasted a salt reference (0.35% salt solution) with a reference salt intensity of 5.0 which provided a baseline for each panelist for salt intensity. 2. Each panelist tasted a test sample (0.1 ppb, 0.5 ppb, 1.0 ppb, 10.0 ppb or 40.0 ppb all in 0.2% NaCl solution). Only one sample was tasted per session. 3. Each panelist re-tasted the salt reference (5.0 intensity) and rated it for salt intensity as well as any other basic taste, chemical feeling factor, or aromatic perceived. Thus, any increased salt perception as a result of the test sample would be determined, as well as any other perceptions present. Attribute Perception Protocol • The panelists evaluated each sample using the following procedure • Descriptive Profiles (flavor and chemical feeling factors) of 5 levels of salt enhancing solutions • Individual data was collected for the flavor and chemical feeling factors of the product in-mouth • Increased Salt Perception Protocol • Each panelist tasted salt 5 reference (0.35% salt solution)—to ground themselves on salt intensity of 5.0. • Each panelist tasted the test sample (0.1 ppb, 0.5 ppb, 1.0 ppb, 10.0 ppb or 40.0/50.0 ppb all in 0.2% NaCl solution: only one per session) • Each panelist then re-tasted the salt 5 reference and rated it for salt intensity as well as any other basic taste, chemical feeling factor, or aromatic perceived. This captured any increased salt perception indicated by the test sample as well as any other perceptions present. • Return to Baseline Protocol • After evaluating the sample for salt & other perceptions, panelists re-tasted the salt 5 reference at 1 minute intervals until their perception of the salt 5 saltiness intensity had returned to 5.0. Each panelist recorded their salt intensity at each interval and took qualitative notes on other perceptions seen in aftertaste. Sample Preparation",
  "note": "Entries after “also recorded” stand apart in the source; their conditions may differ. Square brackets hold non-standard residues; d marks the D form. Ends that are not written are not given here. pGlu = O=C1CC[C@@H](C(=O)O)N1",
  "data": [
    {"substance": "[pGlu]-Val [SE-14]", "values": [
      {"measurement": "Astringent, after-expectoration perception", "setting": "0.1 ppb in 0.2% NaCl", "result": 0.0},
      {"measurement": "Bitter, after-expectoration perception", "setting": "0.1 ppb in 0.2% NaCl", "result": 0.0},
      {"measurement": "Flinty/Mineral, after-expectoration perception", "setting": "0.1 ppb in 0.2% NaCl", "result": 1.1},
      {"measurement": "Metallic, after-expectoration perception", "setting": "0.1 ppb in 0.2% NaCl", "result": 0.3},
      {"measurement": "Numbing, after-expectoration perception", "setting": "0.1 ppb in 0.2% NaCl", "result": 0.0},
      {"measurement": "Salt, after-expectoration perception (mean salt perception after expectoration)", "setting": "0.1 ppb in 0.2% NaCl", "result": 6.7},
      {"measurement": "Sour, after-expectoration perception", "setting": "0.1 ppb in 0.2% NaCl", "result": 0.0},
      {"measurement": "Sweet, after-expectoration perception", "setting": "0.1 ppb in 0.2% NaCl", "result": 0.0},
      {"measurement": "Level of the aromatics, basic tastes and chemical feeling factors after expectoration with increasing concentration", "setting": "0.1 to 40.0/50.0 ppb", "result": "do not increase"},
      {"measurement": "Salt perception after expectoration as the concentration increases", "setting": "0.1 to 40.0/50.0 ppb in 0.2% NaCl", "result": "increases slightly; also recorded: slight increase"},
      {"measurement": "Astringent, after-expectoration perception", "setting": "0.5 ppb in 0.2% NaCl", "result": 0.1},
      {"measurement": "Bitter, after-expectoration perception", "setting": "0.5 ppb in 0.2% NaCl", "result": 0.0},
      {"measurement": "Flinty/Mineral, after-expectoration perception", "setting": "0.5 ppb in 0.2% NaCl", "result": 1.0},
      {"measurement": "Metallic, after-expectoration perception", "setting": "0.5 ppb in 0.2% NaCl", "result": 0.1},
      {"measurement": "Numbing, after-expectoration perception", "setting": "0.5 ppb in 0.2% NaCl", "result": 0.0},
      {"measurement": "Salt, after-expectoration perception (mean salt perception after expectoration)", "setting": "0.5 ppb in 0.2% NaCl", "result": 7.0},
      {"measurement": "Sour, after-expectoration perception", "setting": "0.5 ppb in 0.2% NaCl", "result": 0.0},
      {"measurement": "Sweet, after-expectoration perception", "setting": "0.5 ppb in 0.2% NaCl", "result": 0.0},
      {"measurement": "Astringent, after-expectoration perception", "setting": "1.0 ppb in 0.2% NaCl", "result": 0.1},
      {"measurement": "Bitter, after-expectoration perception", "setting": "1.0 ppb in 0.2% NaCl", "result": 0.0},
      {"measurement": "Flinty/Mineral, after-expectoration perception", "setting": "1.0 ppb in 0.2% NaCl", "result": 0.5},
      {"measurement": "Metallic, after-expectoration perception", "setting": "1.0 ppb in 0.2% NaCl", "result": 0.1},
      {"measurement": "Numbing, after-expectoration perception", "setting": "1.0 ppb in 0.2% NaCl", "result": 0.0},
      {"measurement": "Salt, after-expectoration perception (mean salt perception after expectoration)", "setting": "1.0 ppb in 0.2% NaCl", "result": 7.0},
      {"measurement": "Sour, after-expectoration perception", "setting": "1.0 ppb in 0.2% NaCl", "result": 0.0},
      {"measurement": "Sweet, after-expectoration perception", "setting": "1.0 ppb in 0.2% NaCl", "result": 0.0},
      {"measurement": "Astringent, after-expectoration perception", "setting": "10.0 ppb in 0.2% NaCl", "result": 0.0},
      {"measurement": "Bitter, after-expectoration perception", "setting": "10.0 ppb in 0.2% NaCl", "result": 0.0},
      {"measurement": "Flinty/Mineral, after-expectoration perception", "setting": "10.0 ppb in 0.2% NaCl", "result": 1.0},
      {"measurement": "Metallic, after-expectoration perception", "setting": "10.0 ppb in 0.2% NaCl", "result": 0.2},
      {"measurement": "Numbing, after-expectoration perception", "setting": "10.0 ppb in 0.2% NaCl", "result": 0.0},
      {"measurement": "Salt, after-expectoration perception (mean salt perception after expectoration)", "setting": "10.0 ppb in 0.2% NaCl", "result": 7.3},
      {"measurement": "Sour, after-expectoration perception", "setting": "10.0 ppb in 0.2% NaCl", "result": 0.0},
      {"measurement": "Sweet, after-expectoration perception", "setting": "10.0 ppb in 0.2% NaCl", "result": 0.0},
      {"measurement": "Astringent, after-expectoration perception", "setting": "50.0 ppb in 0.2% NaCl", "result": 0.1},
      {"measurement": "Bitter, after-expectoration perception", "setting": "50.0 ppb in 0.2% NaCl", "result": 0.0},
      {"measurement": "Flinty/Mineral, after-expectoration perception", "setting": "50.0 ppb in 0.2% NaCl", "result": 0.6},
      {"measurement": "Metallic, after-expectoration perception", "setting": "50.0 ppb in 0.2% NaCl", "result": 0.1},
      {"measurement": "Numbing, after-expectoration perception", "setting": "50.0 ppb in 0.2% NaCl", "result": 0.0},
      {"measurement": "Salt, after-expectoration perception (mean salt perception after expectoration)", "setting": "50.0 ppb in 0.2% NaCl", "result": 8.0},
      {"measurement": "Sour, after-expectoration perception", "setting": "50.0 ppb in 0.2% NaCl", "result": 0.0},
      {"measurement": "Sweet, after-expectoration perception", "setting": "50.0 ppb in 0.2% NaCl", "result": 0.0},
      {"measurement": "Umami like swelling of lips and tongue, after expectoration", "setting": "all levels", "result": "Panelists also experience Umami like swelling of lips and tongue"},
      {"measurement": "Salt perception from in-mouth to after expectoration", "setting": "all samples, 0.1 to 40.0/50.0 ppb", "result": "increases after expectoration (from in-mouth) in all samples; also recorded: noticeable increase"}
    ]}
  ]
}
